The record followed here is patent publication US8791139B2, “Anthranilic diamide derivatives” (Bayer Cropscience AG, priority 2010, dated 2014).

The subject of data set [1] is caterpillars of the armyworm (Spodoptera frugiperda). As to the kind of experiment: Spodoptera frugiperda test (SPODFR spray treatment). Format: in vivo. To be noted: 168 h, read-out: activity (caterpillars killed). How it is done:
After 7 days, the effect in % is determined.

A further data set relates to Boophilus microplus. As to the kind of experiment: Boophilus microplus test (BOOPMI injection). Format: in vivo. To be noted: application rate 20 μg/animal, injection into abdomen, after 7 days. How it is done:
(§1) Solvent: dimethyl sulphoxide
The active compound solution is injected into the abdomen (Boophilus microplus), and the animals are transferred into dishes and stored in a climate-controlled room.
The activity is assessed by […] of fertile eggs. 100% means that none of the ticks has laid any fertile eggs.

The next data set has as its system Lucilia cuprina larvae. Description: Lucilia cuprina test (LUCICU). In kind it is in vivo. The settings on record: application rate 100 ppm, after 48 h.
Description: as §1
Vessels containing horse meat treated with the active compound preparation of the desired concentration are populated with about 20 Lucilia cuprina larvae.

The nature of data set [2]: logP by HPLC on reversed-phase columns (C18), EEC Directive 79/831 Annex V.A8. In kind it is physicochemical.
Data set [3] has as its system larvae of the mustard beetle (Phaedon cochleariae). Description: Phaedon test (PHAECO spray treatment). To be noted: 168 h, read-out: activity (beetle larvae killed).
For data set [4], the system named is green peach aphid (Myzus persicae). As to the kind of experiment: Myzus test (MYZUPE spray treatment). In kind it is in vivo. To be noted: application rate 100 g/ha, after 6 days, Chinese cabbage leaf discs.

Read-outs that look alike come from different tables or passages of the source.

For the compound `CNC(=O)c1cc(Cl)cc(C)c1NC(=O)c1cc(N2CCN(c3cc(C(F)(F)F)cc(C(F)(F)F)c3)C2=O)nn1-c1ncccc1Cl` [Example 22], the pest or weed control at 100 g/ha in data set [1] (application rate 100 g/ha, after 7 days) was found to be 100%; in data set [3] it was 100%. Also, in the data set with Boophilus microplus, the “efficacy (no fertile eggs laid)” value is on record as 100%. In addition, the “efficacy (kill of larvae)” value in the data set with Lucilia cuprina larvae is 100%. Also, the chromatographic logP in data set [2] (reversed-phase HPLC column (C18), pH 2.7, HPLC reversed-phase C18, acidic range pH 2.7, 0.1% aqueous formic acid/acetonitrile, table of compounds of formula (I), read-out: log P) stood at 4.43.
On to `Cc1cc(C#N)cc(C(N)=O)c1NC(=O)c1cc(C#Cc2ccc(OC(F)(F)F)cc2)nn1-c1ncccc1Cl` [Example 12], for which the pest or weed control at 100 g/ha in data set [1] was 100%. In addition, the “efficacy (kill of larvae)” value in the data set with Lucilia cuprina larvae is 90%. For the same compound, in data set [2] (pH 2.7, log P), the chromatographic logP came out at 3.58.
Regarding `CNC(=O)c1cc(C#N)cc(C)c1NC(=O)c1cc(C(=O)Cn2nnc(C(F)(F)F)n2)nn1-c1ncccc1Cl` [Example 15], the “activity (aphids killed)” value in data set [4] was 90%. Besides, the pest or weed control at 20 g/ha in data set [1] is 100%. Further, in the data set on Boophilus microplus, the “efficacy (no fertile eggs laid)” value came out at 100%. In addition, the “efficacy (kill of larvae)” value in the data set on Lucilia cuprina larvae worked out at 100%. The chromatographic logP in data set [2] (pH 2.7, log P) is 2.89. Also, in data set [3], the pest or weed control at 100 g/ha was 100%.
For `Cc1cc(Cl)cc(C(=O)NC(C)C)c1NC(=O)c1cc(C#Cc2ccc(OC(F)(F)F)cc2)nn1-c1ncccc1Cl` [Example 11], the pest or weed control at 100 g/ha in data set [1] and in data set [3] was 100% each time. Further, the “efficacy (kill of larvae)” value in the data set on Lucilia cuprina larvae was found to be 90%. Also, the chromatographic logP in data set [2] (pH 2.7, log P) was found to be 4.79.
Consider `CNC(=O)c1cc(C#N)cc(C)c1NC(=O)c1cc(C(O)Cn2nnc(C(F)(F)F)n2)nn1-c1ncccc1Cl` (stereo not shown) [Example 63], for which, in data set [4], the “activity (aphids killed)” value is reported as 80%. In data set [1], the pest or weed control at 100 g/ha stood at 100%. Moreover, the “efficacy (no fertile eggs laid)” value in the data set with Boophilus microplus was found to be 100%. Also, the log P (usually a log measure of how a compound divides between an organic and an aqueous phase) in data set [2] (pH 2.7) came to 2.27. Besides, in data set [2] (pH 2.7, log P), the chromatographic logP came out at 2.01.
As to `Cc1cc(C#N)cc(C(=O)NC(C)C)c1NC(=O)c1cc(C(=O)c2nc(C(F)(F)F)cs2)nn1-c1ncccc1Cl` [Example 21], the “activity (aphids killed)” value in data set [4] is 90%. Besides, the pest or weed control at 100 g/ha in data set [1] and in data set [3] was 100% in each case. The “efficacy (kill of larvae)” value in the data set on Lucilia cuprina larvae stood at 100%. Also, in data set [2] (pH 2.7, log P), the chromatographic logP was determined as 3.24.
